Data taken from ChEMBL document CHEMBL1909046, “DrugMatrix in vitro pharmacology data”.

Tests used:
[1] = DRUGMATRIX: Calcium Channel Type L, Benzothiazepine radioligand binding (ligand: [3H] Diltiazem); type: cell membranes, Rattus norvegicus, Wistar, Brain, Membrane; conditions: Not Active = under 50% inhibition at 10 µM
Melanocortin receptor 4 = Melanocortin receptor 4 (Homo sapiens, UniProt P32245); type: cell membranes, Membrane; conditions: hek293; also: in other assays of this panel Not Active means under 50% inhibition at 10 µM
[2] = target: T1, Receptor-type tyrosine-protein phosphatase C (Homo sapiens, UniProt P08575); design: species or system Escherichia coli;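 also: inhibition of CD45 enzyme activity measured using DiFMUP as substrate; in other assays of this panel Not Active means under 50% inhibition at 10 µM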
T1 sequence (P08575 whole entry): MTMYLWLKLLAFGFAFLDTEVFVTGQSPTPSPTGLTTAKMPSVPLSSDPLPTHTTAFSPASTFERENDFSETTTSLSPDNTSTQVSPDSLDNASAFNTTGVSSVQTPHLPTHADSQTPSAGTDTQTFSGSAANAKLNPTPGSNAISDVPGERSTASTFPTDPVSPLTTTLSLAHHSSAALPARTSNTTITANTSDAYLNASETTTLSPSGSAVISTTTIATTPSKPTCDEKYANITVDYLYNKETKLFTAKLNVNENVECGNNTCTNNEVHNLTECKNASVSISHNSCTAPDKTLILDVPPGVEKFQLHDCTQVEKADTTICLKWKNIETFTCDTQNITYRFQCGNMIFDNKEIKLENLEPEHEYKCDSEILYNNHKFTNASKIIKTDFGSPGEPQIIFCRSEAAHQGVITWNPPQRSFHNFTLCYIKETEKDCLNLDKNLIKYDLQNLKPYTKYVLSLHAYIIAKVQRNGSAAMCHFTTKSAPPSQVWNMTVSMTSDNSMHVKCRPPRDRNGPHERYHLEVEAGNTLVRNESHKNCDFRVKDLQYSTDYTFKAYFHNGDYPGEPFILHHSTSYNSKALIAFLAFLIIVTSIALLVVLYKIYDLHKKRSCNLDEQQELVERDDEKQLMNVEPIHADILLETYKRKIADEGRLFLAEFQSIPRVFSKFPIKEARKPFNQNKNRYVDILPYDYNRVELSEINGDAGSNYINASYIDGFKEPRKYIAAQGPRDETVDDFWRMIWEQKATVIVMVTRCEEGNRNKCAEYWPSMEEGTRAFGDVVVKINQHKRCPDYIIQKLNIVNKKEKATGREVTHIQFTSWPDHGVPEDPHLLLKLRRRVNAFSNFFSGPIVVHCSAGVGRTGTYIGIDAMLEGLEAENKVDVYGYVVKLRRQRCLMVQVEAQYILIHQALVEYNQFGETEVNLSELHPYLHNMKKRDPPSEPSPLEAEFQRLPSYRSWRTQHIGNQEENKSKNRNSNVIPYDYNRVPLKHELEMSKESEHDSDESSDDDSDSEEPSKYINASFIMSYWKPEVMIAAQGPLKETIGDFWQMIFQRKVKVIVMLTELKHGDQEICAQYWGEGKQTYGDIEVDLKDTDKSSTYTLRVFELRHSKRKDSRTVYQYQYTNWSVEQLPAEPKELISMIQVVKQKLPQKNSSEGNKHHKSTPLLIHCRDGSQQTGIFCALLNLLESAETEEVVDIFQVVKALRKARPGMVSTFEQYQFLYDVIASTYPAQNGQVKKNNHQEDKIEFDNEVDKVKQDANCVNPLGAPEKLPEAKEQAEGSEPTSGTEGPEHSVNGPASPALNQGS

[3] = DRUGMATRIX: Potassium Channel [KATP] radioligand binding (ligand: [3H] Glyburide); type: cell membranes, Membrane; conditions: hit-t15; Not Active = under 50% inhibition at 10 µM
[4] = target: T2, Alpha-1B adrenergic receptor (Rattus norvegicus, UniProt P15823); test: DRUGMATRIX: Alpha-1B adrenergic receptor radioligand binding (ligand: prazosin); type: cell membranes, Wistar, Liver, Membrane; conditions: Not Active = under 50% inhibition at 10 µM
T2 sequence (P15823 whole entry): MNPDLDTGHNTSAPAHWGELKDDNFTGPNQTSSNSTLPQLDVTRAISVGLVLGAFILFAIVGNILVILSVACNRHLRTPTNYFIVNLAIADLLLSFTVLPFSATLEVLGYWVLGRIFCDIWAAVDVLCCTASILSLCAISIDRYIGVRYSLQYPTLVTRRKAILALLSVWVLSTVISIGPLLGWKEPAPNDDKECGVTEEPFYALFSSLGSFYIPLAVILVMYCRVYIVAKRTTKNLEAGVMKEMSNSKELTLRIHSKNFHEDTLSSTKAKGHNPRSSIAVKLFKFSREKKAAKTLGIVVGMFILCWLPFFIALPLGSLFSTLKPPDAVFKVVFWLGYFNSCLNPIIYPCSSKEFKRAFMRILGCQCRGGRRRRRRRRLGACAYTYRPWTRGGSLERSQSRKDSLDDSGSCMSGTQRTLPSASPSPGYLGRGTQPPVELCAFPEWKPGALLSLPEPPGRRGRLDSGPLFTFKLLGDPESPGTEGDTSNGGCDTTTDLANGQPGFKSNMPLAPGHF

[5] = DRUGMATRIX: ATPase, Na+/K+ enzyme inhibition (substrate: ATP); type: tissue-based, Sus scrofa, Heart; conditions: Not Active = under 50% inhibition at 10 µM

Melanocortin receptor 4, sequence (P32245 whole entry): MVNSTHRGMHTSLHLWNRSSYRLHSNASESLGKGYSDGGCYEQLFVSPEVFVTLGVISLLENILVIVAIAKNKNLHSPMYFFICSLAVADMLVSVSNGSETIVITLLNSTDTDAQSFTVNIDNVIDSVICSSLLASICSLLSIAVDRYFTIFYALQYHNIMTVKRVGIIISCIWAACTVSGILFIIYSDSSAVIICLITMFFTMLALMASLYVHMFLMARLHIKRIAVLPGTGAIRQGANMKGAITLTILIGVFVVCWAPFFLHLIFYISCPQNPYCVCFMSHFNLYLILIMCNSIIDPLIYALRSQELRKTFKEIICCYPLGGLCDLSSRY

C[C@]12C/C(=C/O)C(=O)C[C@@H]1CC[C@@H]1[C@@H]2CC[C@@]2(C)[C@H]1CC[C@]2(C)O [OXYMETHOLONE]
IC50 [1]: Not Active
Ki [1]: Not Active
IC50 (Melanocortin receptor 4): Not Active
IC50 [2]: Not Active
IC50 [3]: Not Active
Ki [3]: Not Active
IC50 [4]: Not Active
IC50 [5]: Not Active
Ki [5]: Not Active

C=C(CC)C(=O)c1ccc(OCC(=O)O)c(Cl)c1Cl [ETHACRYNIC ACID]
IC50 [1]: Not Active
Ki [1]: Not Active
IC50 (Melanocortin receptor 4): Not Active
IC50 [2]: Not Active
IC50 [3]: Not Active
Ki [3]: Not Active
IC50 [4]: Not Active
IC50 [5]: Not Active
Ki [5]: Not Active

CCOC(=O)[C@H](CCc1ccccc1)N[C@@H](C)C(=O)N1Cc2ccccc2C[C@H]1C(=O)O
IC50 [1]: Not Active
Ki [1]: Not Active
IC50 (Melanocortin receptor 4): Not Active
IC50 [2]: Not Active
IC50 [3]: Not Active
Ki [3]: Not Active
IC50 [4]: Not Active
IC50 [5]: Not Active
Ki [5]: Not Active

CCc1oc2ccccc2c1C(=O)c1cc(Br)c(O)c(Br)c1 [BENZBROMARONE]
IC50 [1]: Not Active
Ki [1]: Not Active
IC50 (Melanocortin receptor 4): Not Active
IC50 [2]: Not Active
IC50 [3]: Not Active
Ki [3]: Not Active
IC50 [4]: Not Active
IC50 [5]: Not Active
Ki [5]: Not Active

CC[C@H]1OC(=O)[C@H](C)[C@@H](O[C@H]2C[C@@](C)(OC)[C@@H](O)[C@H](C)O2)[C@H](C)[C@@H](O[C@@H]2O[C@H](C)C[C@H](N(C)C)[C@H]2O)[C@](C)(OC)C[C@@H](C)C(=O)[C@H](C)[C@@H](O)[C@]1(C)O [CLARITHROMYCIN]
IC50 [1]: Not Active
Ki [1]: Not Active
IC50 (Melanocortin receptor 4): Not Active
IC50 [2]: Not Active
IC50 [3]: Not Active
Ki [3]: Not Active
IC50 [4]: Not Active
IC50 [5]: Not Active
Ki [5]: Not Active

CC(=O)O[C@]1(C(C)=O)CC[C@H]2[C@@H]3C=C(C)C4=CC(=O)CC[C@]4(C)[C@H]3CC[C@@]21C [MEGESTROL ACETATE]
IC50 [1]: Not Active
Ki [1]: Not Active
IC50 (Melanocortin receptor 4): Not Active
IC50 [2]: Not Active
IC50 [3]: Not Active
Ki [3]: Not Active
IC50 [4]: Not Active
IC50 [5]: Not Active
Ki [5]: Not Active

CC(C)C[C@H]1C(=O)N2CCC[C@H]2[C@]2(O)O[C@](NC(=O)[C@@H]3C=C4c5cccc6[nH]c(Br)c(c56)C[C@H]4N(C)C3)(C(C)C)C(=O)N12 [BROMOCRIPTINE]
IC50 [1]: Not Active
Ki [1]: Not Active
IC50 (Melanocortin receptor 4): Not Active
IC50 [2]: Not Active
IC50 [3]: Not Active
Ki [3]: Not Active
IC50 ([4]; read-out: IC50): 3.55 nM
Ki ([4]; read-out: Ki): 1.96 nM
IC50 [5]: Not Active
Ki [5]: Not Active

CC(=O)O[C@]1(C(C)=O)CC[C@H]2[C@@H]3C=C(Cl)C4=CC(=O)[C@@H]5C[C@@H]5[C@]4(C)[C@H]3CC[C@@]21C [CYPROTERONE ACETATE]
IC50 [1]: Not Active
Ki [1]: Not Active
IC50 (Melanocortin receptor 4): Not Active
IC50 [2]: Not Active
IC50 [3]: Not Active
Ki [3]: Not Active
IC50 [4]: Not Active
IC50 [5]: Not Active
Ki [5]: Not Active

CC(C)(Oc1ccc(C2CC2(Cl)Cl)cc1)C(=O)O (stereo unspecified) [CIPROFIBRATE]
IC50 [1]: Not Active
Ki [1]: Not Active
IC50 (Melanocortin receptor 4): Not Active
IC50 [2]: Not Active
IC50 [3]: Not Active
Ki [3]: Not Active
IC50 [4]: Not Active
IC50 [5]: Not Active
Ki [5]: Not Active

CC(C)(C)c1ccc(S(=O)(=O)/C=C/C#N)cc1 [BAY-11-7085]
IC50 [1]: Not Active
Ki [1]: Not Active
IC50 (Melanocortin receptor 4): Not Active
IC50 [2]: Not Active
IC50 [3]: Not Active
Ki [3]: Not Active
IC50 [4]: Not Active
IC50 [5]: Not Active
Ki [5]: Not Active

Cc1cccc(Nc2ccccc2C(=O)O)c1C [MEFENAMIC ACID]
IC50 [1]: Not Active
Ki [1]: Not Active
IC50 (Melanocortin receptor 4): Not Active
IC50 [2]: Not Active
IC50 [3]: Not Active
Ki [3]: Not Active
IC50 [4]: Not Active
IC50 [5]: Not Active
Ki [5]: Not Active

NC[C@@H]1O[C@H](O[C@H]2[C@@H](O)[C@H](O[C@@H]3[C@@H](O)[C@H](N)C[C@H](N)[C@H]3O[C@H]3O[C@H](CN)[C@@H](O)[C@H](O)[C@H]3N)O[C@@H]2CO)[C@H](N)[C@@H](O)[C@@H]1O [FRAMYCETIN]
IC50 [1]: Not Active
Ki [1]: Not Active
IC50 (Melanocortin receptor 4): Not Active
IC50 [2]: Not Active
IC50 [3]: Not Active
Ki [3]: Not Active
IC50 [4]: Not Active
IC50 [5]: Not Active
Ki [5]: Not Active

O=C(O)c1cccnc1 [NIACIN]
IC50 [1]: Not Active
Ki [1]: Not Active
IC50 (Melanocortin receptor 4): Not Active
IC50 [2]: Not Active
IC50 [3]: Not Active
Ki [3]: Not Active
IC50 [4]: Not Active
IC50 [5]: Not Active
Ki [5]: Not Active

CC[C@]1(O)CC[C@H]2[C@@H]3CCC4=CCCC[C@@H]4[C@H]3CC[C@@]21C
IC50 [1]: Not Active
Ki [1]: Not Active
IC50 (Melanocortin receptor 4): Not Active
IC50 [2]: Not Active
IC50 [3]: Not Active
Ki [3]: Not Active
IC50 [4]: Not Active
IC50 [5]: Not Active
Ki [5]: Not Active

COc1cc(CNC(=O)CCCC/C=C/C(C)C)ccc1O [CAPSAICIN]
IC50 [1]: Not Active
Ki [1]: Not Active
IC50 (Melanocortin receptor 4): Not Active
IC50 [2]: Not Active
IC50 [3]: Not Active
Ki [3]: Not Active
IC50 [4]: Not Active
IC50 [5]: Not Active
Ki [5]: Not Active

CN(C(=O)CCCOc1ccc2[nH]c(=O)ccc2c1)C1CCCCC1 [CILOSTAMIDE]
IC50 [1]: Not Active
Ki [1]: Not Active
IC50 (Melanocortin receptor 4): Not Active
IC50 [2]: Not Active
IC50 [3]: Not Active
Ki [3]: Not Active
IC50 [4]: Not Active
IC50 [5]: Not Active
Ki [5]: Not Active

CC(=O)OCC(CCn1cnc2cnc(N)nc21)COC(C)=O [FAMCICLOVIR]
IC50 [1]: Not Active
Ki [1]: Not Active
IC50 (Melanocortin receptor 4): Not Active
IC50 [2]: Not Active
IC50 [3]: Not Active
Ki [3]: Not Active
IC50 [4]: Not Active
IC50 [5]: Not Active
Ki [5]: Not Active

OCCN1CCN(CCCN2c3ccccc3Sc3ccc(Cl)cc32)CC1 [PERPHENAZINE]
IC50 [1]: Not Active
Ki [1]: Not Active
IC50 (Melanocortin receptor 4): Not Active
IC50 [2]: Not Active
IC50 [3]: Not Active
Ki [3]: Not Active
IC50 [4]: Not Active
IC50 [5]: Not Active
Ki [5]: Not Active

COC(=O)c1ccccc1O [METHYL SALICYLATE]
IC50 [1]: Not Active
Ki [1]: Not Active
IC50 (Melanocortin receptor 4): Not Active
IC50 [2]: Not Active
IC50 [3]: Not Active
Ki [3]: Not Active
IC50 [4]: Not Active
IC50 [5]: Not Active
Ki [5]: Not Active

C[C@H]([C@](O)(Cn1cncn1)c1ccc(F)cc1F)S(C)(=O)=O [GENACONAZOLE]
IC50 [1]: Not Active
Ki [1]: Not Active
IC50 (Melanocortin receptor 4): Not Active
IC50 [2]: Not Active
IC50 [3]: Not Active
Ki [3]: Not Active
IC50 [4]: Not Active
IC50 [5]: Not Active
Ki [5]: Not Active
